The target of experiment [1] is T1, MAGL (Mus musculus, UniProt O35678).
T1 construct: mouse brain membrane fraction or cell lysates for mouse assays; from tissue
T1 sequence (O35678 1-303): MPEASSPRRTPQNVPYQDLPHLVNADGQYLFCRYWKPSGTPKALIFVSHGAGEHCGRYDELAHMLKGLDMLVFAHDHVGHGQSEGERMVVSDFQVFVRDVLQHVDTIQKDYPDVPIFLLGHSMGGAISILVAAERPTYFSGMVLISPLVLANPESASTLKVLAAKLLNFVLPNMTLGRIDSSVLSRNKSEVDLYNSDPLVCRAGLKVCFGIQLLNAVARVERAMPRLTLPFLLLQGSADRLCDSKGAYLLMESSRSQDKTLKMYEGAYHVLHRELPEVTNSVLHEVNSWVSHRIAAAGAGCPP
Kind of experiment: In vitro competitive activity-based protein profiling, mouse MAGL. The class given is biochemical. Particulars: for inhibition at 1 µM: read-out: MAGL % inh. 1 μM (mouse). The gist of the method:
(§1)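 Mouse brain membranes or cell lysates (mouse) and human prefrontal cortex or cell membrane fractions (human), 1.0 mg/mL protein, preincubated with inhibitor 30 min at 37 °C, then FP-Rh or HT-01 probe 30 min at 37 °C. SDS-PAGE; MAGL and FAAH activity from in-gel fluorescence band intensity.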

The target of experiment [2] is T2, FAAH (Mus musculus, UniProt O08914).
T2 construct: mouse brain membrane fraction or cell lysates for mouse assays; from tissue
T2 sequence (O08914 1-579): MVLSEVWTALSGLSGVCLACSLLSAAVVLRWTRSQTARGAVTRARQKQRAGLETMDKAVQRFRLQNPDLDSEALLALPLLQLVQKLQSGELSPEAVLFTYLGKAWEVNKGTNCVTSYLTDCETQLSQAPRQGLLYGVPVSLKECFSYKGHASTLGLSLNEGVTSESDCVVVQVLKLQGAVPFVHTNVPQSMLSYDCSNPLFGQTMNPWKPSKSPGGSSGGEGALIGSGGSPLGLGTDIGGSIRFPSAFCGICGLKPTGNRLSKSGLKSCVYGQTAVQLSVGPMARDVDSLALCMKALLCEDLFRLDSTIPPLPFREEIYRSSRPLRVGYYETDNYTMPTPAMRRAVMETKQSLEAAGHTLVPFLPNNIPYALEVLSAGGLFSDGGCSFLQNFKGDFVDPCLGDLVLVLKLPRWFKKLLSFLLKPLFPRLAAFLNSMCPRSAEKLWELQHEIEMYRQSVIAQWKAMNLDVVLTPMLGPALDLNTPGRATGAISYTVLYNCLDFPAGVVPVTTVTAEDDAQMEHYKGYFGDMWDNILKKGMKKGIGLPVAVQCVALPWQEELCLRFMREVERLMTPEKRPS
Kind of experiment: In vitro competitive activity-based protein profiling, mouse FAAH. The experiment is classed as biochemical. Particulars: for inhibition at 1 µM: read-out: FAAH % inh. 1 μM (mouse). The procedure, abridged:
as §1

Some results are limits rather than exact numbers.

One may read the IC50 as the point on the concentration scale where inhibition reaches its midpoint. Low values mean greater potency, high ones weaker potency. For `O=C(N1CC2CN(Cc3ccccc3N3CCOCC3)CC2C1)n1cc(C(F)(F)F)cn1` (centres unmarked) [Example 157, (5-(2-morpholinobenzyl)hexahydropyrrolo[3,4-c]pyrrol-2(1H)-yl)(4-(trifluoromethyl)-1H-pyrazol-1-yl)methanone], in experiment [1], the IC50 was at most 100 nM and the inhibition at 1 µM was at least 75%. Also, in experiment [2], the IC50 was 100 to 1000 nM and the inhibition at 1 µM was at least 75%.
Turning to `CN(Cc1ccc(Oc2ccccc2)cc1)[C@@H]1C[C@@H]2CN(C(=O)n3cc(Cl)cn3)C[C@@H]2C1` [Example 158, (4-chloro-1H-pyrazol-1-yl)(cis-5-(methyl(4-phenoxybenzyl)amino)hexahydrocyclopenta[c]pyrrol-2(1H)-yl)methanone], the inhibition at 1 µM in experiment [1] and in experiment [2] was at least 75% in each case.
Consider `CN(Cc1ccc(Oc2ccccc2)cc1)[C@H]1C[C@@H]2CN(C(=O)n3cc(Cl)cn3)C[C@@H]2C1` [Example 159, (4-chloro-1H-pyrazol-1-yl)(trans-5-(methyl(4-phenoxybenzyl)amino)hexahydrocyclopenta[c]pyrrol-2(1H)-yl)methanone], for which the inhibition at 1 µM in experiment [1] and in experiment [2] was at least 75% each time.
As for `CN(Cc1ccc(Oc2cccnc2)cc1)[C@@H]1C[C@@H]2CN(C(=O)n3cc(Cl)cn3)C[C@@H]2C1` [Example 160, (4-chloro-1H-pyrazol-1-yl)(cis-5-(methyl(4-(pyridin-3-yloxy)benzyl)amino)hexahydrocyclopenta[c]pyrrol-2(1H)-yl)methanone], the inhibition at 1 µM in experiment [1] and in experiment [2] was at least 75% throughout.
For `CN(Cc1ccc(Oc2cccnc2)cc1)[C@H]1C[C@@H]2CN(C(=O)n3cc(Cl)cn3)C[C@@H]2C1` [Example 161, (4-chloro-1H-pyrazol-1-yl)(trans-5-(methyl(4-(pyridin-3-yloxy)benzyl)amino)hexahydrocyclopenta[c]pyrrol-2(1H)-yl)methanone], the inhibition at 1 µM in experiment [1] and in experiment [2] was at least 75% each time.
Regarding `CN(Cc1cccc(Oc2ccccc2)c1)[C@H]1C[C@@H]2CN(C(=O)n3cc(Cl)cn3)C[C@@H]2C1` [Example 162, (4-chloro-1H-pyrazol-1-yl)(trans-5-(methyl(3-phenoxybenzyl)amino)hexahydrocyclopenta[c]pyrrol-2(1H)-yl)methanone], the IC50 in experiment [1] and in experiment [2] was at most 100 nM in each case. For the same molecule, the inhibition at 1 µM in experiment [1] and in experiment [2] was at least 75% each time.
As for `CN(Cc1cccc(Oc2cccnc2)c1)[C@H]1C[C@@H]2CN(C(=O)n3cc(Cl)cn3)C[C@@H]2C1` [Example 163, (4-chloro-1H-pyrazol-1-yl)(trans-5-(methyl(3-(pyridin-3-yloxy)benzyl)amino)hexahydrocyclopenta[c]pyrrol-2(1H)-yl)methanone], in experiment [1], the IC50 is at most 100 nM and the inhibition at 1 µM is at least 75%. Moreover, in experiment [2], the IC50 was at most 100 nM and the inhibition at 1 µM was at least 75%.
As for `CN(Cc1cccc(Oc2ccccc2)c1)[C@@H]1C[C@@H]2CN(C(=O)n3cc(Cl)cn3)C[C@@H]2C1` [Example 164, (4-chloro-1H-pyrazol-1-yl)(cis-5-(methyl(3-phenoxybenzyl)amino)hexahydrocyclopenta[c]pyrrol-2(1H)-yl)methanone], in experiment [1], the IC50 is at most 100 nM and the inhibition at 1 µM is at least 75%. In experiment [2], the IC50 is at most 100 nM and the inhibition at 1 µM is at least 75%.
For the molecule `CN(Cc1cccc(Oc2cccnc2)c1)[C@@H]1C[C@@H]2CN(C(=O)n3cc(Cl)cn3)C[C@@H]2C1` [Example 165, (4-chloro-1H-pyrazol-1-yl)(cis-5-(methyl(3-(pyridin-3-yloxy)benzyl)amino)hexahydrocyclopenta[c]pyrrol-2(1H)-yl)methanone], the results for the IC50 in experiment [1] and in experiment [2] were 100 to 1000 nM and at most 100 nM, respectively. Further, the inhibition at 1 µM in experiment [1] and in experiment [2] was at least 75% throughout.
As for `O=C(N1CCC2(CCN(Cc3ccc(F)cc3)C2)C1)n1cc(C(F)(F)F)cn1` (centres unmarked) [Example 166, (7-(4-fluorobenzyl)-2,7-diazaspiro[4.4]nonan-2-yl)(4-(trifluoromethyl)-1H-pyrazol-1-yl)methanone], in experiment [1], the IC50 fell in the range of 100 to 1000 nM and the inhibition at 1 µM was at least 75%. In experiment [2], the IC50 lay in the range of 100 to 1000 nM and the inhibition at 1 µM was at least 75%.
Turning to `COc1ccc(CN2CCC3(CCN(C(=O)n4cc(C(F)(F)F)cn4)C3)C2)cc1` (centres unmarked) [Example 167, (7-(4-methoxybenzyl)-2,7-diazaspiro[4.4]nonan-2-yl)(4-(trifluoromethyl)-1H-pyrazol-1-yl)methanone], in experiment [1], the IC50 lay in the range of 100 to 1000 nM and the inhibition at 1 µM was at least 75%. Further, in experiment [2], the IC50 was in the range of 100 to 1000 nM and the inhibition at 1 µM is at least 75%.
For the molecule `O=C(N1CCC2(CCN(Cc3cccc(Cl)c3)C2)C1)n1cc(C(F)(F)F)cn1` (centres unmarked) [Example 168, (7-(3-chlorobenzyl)-2,7-diazaspiro[4.4]nonan-2-yl)(4-(trifluoromethyl)-1H-pyrazol-1-yl)methanone], the IC50 in experiment [1] and in experiment [2] was at most 100 nM each time. The inhibition at 1 µM in experiment [1] and in experiment [2] was at least 75% throughout.
In the case of `O=C(N1CCC2(CCN(Cc3cccc(F)c3)C2)C1)n1cc(C(F)(F)F)cn1` (centres unmarked) [Example 169, (7-(3-fluorobenzyl)-2,7-diazaspiro[4.4]nonan-2-yl)(4-(trifluoromethyl)-1H-pyrazol-1-yl)methanone], in experiment [1], the IC50 was in the range of 100 to 1000 nM and the inhibition at 1 µM is at least 75%. In experiment [2], the IC50 was at most 100 nM and the inhibition at 1 µM was at least 75%.
On to `Cc1cccc(CN2CCC3(CCN(C(=O)n4cc(C(F)(F)F)cn4)C3)C2)c1` (centres unmarked) [Example 170, (7-(3-methylbenzyl)-2,7-diazaspiro[4.4]nonan-2-yl)(4-(trifluoromethyl)-1H-pyrazol-1-yl)methanone], for which the IC50 is 100 to 1000 nM in experiment [1] and at most 100 nM in experiment [2]. Also, the inhibition at 1 µM in experiment [1] and in experiment [2] was at least 75% throughout.
`COc1cccc(CN2CCC3(CCN(C(=O)n4cc(C(F)(F)F)cn4)C3)C2)c1` (centres unmarked) [Example 171]: in experiment [1], the IC50 was in the range of 100 to 1000 nM and the inhibition at 1 µM is at least 75%. For the same molecule, in experiment [2], the IC50 was at most 100 nM and the inhibition at 1 µM was at least 75%.
Take `O=C(N1CCC2(CCN(Cc3cccc(C(F)(F)F)c3)C2)C1)n1cc(C(F)(F)F)cn1` (centres unmarked) [Example 172, (4-(trifluoromethyl)-1H-pyrazol-1-yl)(7-(3-(trifluoromethyl)benzyl)-2,7-diazaspiro[4.4]nonan-2-yl)methanone]: in experiment [1], the concentration for half-maximal inhibition (IC50) was at most 100 nM and the inhibition at 1 µM was at least 75%. For the same molecule, in experiment [2], the IC50 was at most 100 nM and the inhibition at 1 µM is at least 75%.
Turning to `Cc1ccc(CN2CCC3(CCN(C(=O)n4cc(C(F)(F)F)cn4)C3)C2)cc1` (centres unmarked) [Example 173, (7-(4-methylbenzyl)-2,7-diazaspiro[4.4]nonan-2-yl)(4-(trifluoromethyl)-1H-pyrazol-1-yl)methanone], the inhibition at 1 µM in experiment [1] and in experiment [2] was at least 75% throughout.
Regarding `O=C(N1CCC2(CCN(Cc3cccc(N4CCCC4)c3)C2)C1)n1cc(C(F)(F)F)cn1` (centres unmarked) [Example 174, (7-(3-(pyrrolidin-1-yl)benzyl)-2,7-diazaspiro[4.4]nonan-2-yl)(4-(trifluoromethyl)-1H-pyrazol-1-yl)methanone], the inhibition at 1 µM in experiment [1] and in experiment [2] was at least 75% in each case.
For the molecule `O=C(N1CCC2(CCN(Cc3cccc(N4CCOCC4)c3)C2)C1)n1cc(C(F)(F)F)cn1` (centres unmarked) [Example 175, (7-(3-morpholinobenzyl)-2,7-diazaspiro[4.4]nonan-2-yl)(4-(trifluoromethyl)-1H-pyrazol-1-yl)methanone], the inhibition at 1 µM in experiment [1] and in experiment [2] was at least 75% throughout.
On to `O=C(N1CCC2(CCN(Cc3ccccc3Cl)C2)C1)n1cc(C(F)(F)F)cn1` (centres unmarked) [Example 176, (7-(2-chlorobenzyl)-2,7-diazaspiro[4.4]nonan-2-yl)(4-(trifluoromethyl)-1H-pyrazol-1-yl)methanone], for which, in experiment [1], the IC50 is at most 100 nM and the inhibition at 1 µM is at least 75%. Also, in experiment [2], the IC50 is at most 100 nM and the inhibition at 1 µM is at least 75%.
As for `O=C(N1CCC2(CCN(Cc3ccccc3F)C2)C1)n1cc(C(F)(F)F)cn1` (centres unmarked) [Example 177, (7-(2-fluorobenzyl)-2,7-diazaspiro[4.4]nonan-2-yl)(4-(trifluoromethyl)-1H-pyrazol-1-yl)methanone], the inhibition at 1 µM in experiment [1] and in experiment [2] was at least 75% in each case.

These data come from patent publication US10385057B2, “Pyrazole compounds and methods of making and using same” (Lundbeck La Jolla Research Center, Inc., priority 2015, dated 2019).
